We go through two compounds from patent US3939143A, “1-N-isoserylkanamycins and the production thereof” (Zaidan Hojin Biseibutsu Kagaku Kenkyu Kai, priority 1973, dated 1976).

The test system of one assay is Bacillus anthracis. In words: microbe, parasite or virus in culture. Format: cell-based. The conditions noted are these: 18 h, read-out: Minimum Inhibitory Concentration.
For assay [1], the system named is Escherichia coli K-12 ML 1410. In words: Minimum inhibitory concentration, serial dilution on nutrient agar. Format: cell-based. The conditions noted are these: K12ML1410, 18 h, read-out: Minimum Inhibitory Concentration.
A further assay relates to Escherichia coli W677. The assay is described as above. Format: cell-based. To be noted: W677, 37°C, 18 hours, read-out: Minimum Inhibitory Concentration.
Assay [2] has as its system Bacillus subtilis PCI 219. Described as above. Format: cell-based. The conditions noted are these: PCI219, 37°C, 18 hours, read-out: Minimum Inhibitory Concentration.
In a further assay the test system is Salmonella typhosa T-63. Described as above. To be noted: Salmonella enterica, 18 h, read-out: Minimum Inhibitory Concentration. The format is cell-based.
A further assay concerns phosphotransferase. To be noted: phosphorylation of the 3'-hydroxyl group; cited from earlier work.
Assay [3] relates to Bacillus subtilis NRRL B-558. In words: Minimum inhibitory concentration, serial dilution on nutrient agar. The format is cell-based. To be noted: NRRLB558, 37°C, 18 hours, read-out: Minimum Inhibitory Concentration.
Assay [4] has as its system Escherichia coli LA290 R64. The assay is described as above. Format: cell-based. The conditions noted are these: LA290R64, 18 h, read-out: Minimum Inhibitory Concentration.
In assay [5] the test system is Salmonella enteritidis 1891. The description is as above. Format: cell-based. The conditions noted are these: Salmonella enterica, 18 h, read-out: Minimum Inhibitory Concentration.
In assay [6] the test system is Bacillus cereus ATCC 10702. The description is as above. Format: cell-based. The conditions noted are these: ATCC10702, 37°C, 18 hours, read-out: Minimum Inhibitory Concentration.
Assay [7] has as its system Escherichia coli K-12 ML 1410 R81. Described as above. The format is cell-based. To be noted: 18 h, read-out: Minimum Inhibitory Concentration.
Assay [8] concerns Pseudomonas aeruginosa No.12. The assay is described as above. The format is cell-based. The conditions noted are these: NO.12, 37°C, 18 hours, read-out: Minimum Inhibitory Concentration.
The test system of assay [9] is Pseudomonas aeruginosa TI-13. The assay is described as above. The format is cell-based. The conditions noted are these: TI13, 37°C, 18 hours. As to the method: (§1) The minimum inhibitory concentrations (mcg/ml) of 1-N-DL-isoserylkanamycin,1-N-DL-isoserylkanamycin B and 1-N-DL-isoseryl-3',4'-dideoxykanamycin B against various microorganisms were determined according to the serial dilution method using nutrient agar medium at 37°C, the estimation being effected after 18 hours incubation. For comparison purposes, the minimum inhibitory concentrations of kanamycin, kanamycin B and 3',4'-dideoxykanamycin B were also determined in the same manner and under the same conditions as mentioned above.
(§2) The antibacterial spectra of 1-N-DL-isoseryl-kanamycin (abbreviated as 1-IS-KM), 1-N-DL-isoseryl-kanamycin B (abbreviated as 1-IS-KMB) and 1-N-DL-isoseryl-3',4'-dideoxykanamycin B (abbreviated as 1-IS-DKB) are shown in the following table together with those of kanamycin (abbreviatedas KM), kanamycin B (abbreviated as KMB) and 3',4'-dideoxykanamycin B (abbreviated as DKB).

Assay [10] has as its system Pseudomonas aeruginosa A3. The assay is described as above. Format: cell-based. The conditions noted are these: 37°C, 18 hours. Here is the method: as §1, §2
Assay [11] concerns Escherichia coli K-12 ML 1630. The assay is described as above. The format is cell-based. The conditions noted are these: K12ML1630, 37°C, 18 hours. As to the method:
as §1, §2

Assay [12] deals with Shigella flexneri 4b JS 11811. Described as above. Format: cell-based. The conditions noted are these: 4BJS11811, 37°C, 18 hours. Here is the method: as §1, §2
The next assay has as its system Shigella sonnei JS 11746. Described as above. The format is cell-based. To be noted: JS11746, 37°C, 18 hours. As to the method: as §1, §2
For assay [13], the system named is Escherichia coli JR66/W677. The conditions noted are these: nucleotidyltransferase-producing resistant strain; cited from earlier work.
Assay [14] has as its system Escherichia coli K-12 ML 1629. The assay can be described thus: Minimum inhibitory concentration, serial dilution on nutrient agar. The format is cell-based. To be noted: K12ML1629, 37°C, 18 hours, read-out: Minimum Inhibitory Concentration.
The test system of assay [15] is Klebsiella pneumoniae 22 No. 3038. The description is as above. Format: cell-based. The conditions noted are these: 22NO.3038, 37°C, 18 hours, read-out: Minimum Inhibitory Concentration.
Assay [16] has as its system Staphylococcus aureus Terajima. Described as above. Format: cell-based. To be noted: 37°C, 18 hours, read-out: Minimum Inhibitory Concentration.
A further assay relates to Escherichia coli K-12. Described as above. The conditions noted are these: K12, 37°C, 18 hours, read-out: Minimum Inhibitory Concentration. The format is cell-based.
Assay [17] deals with Escherichia coli LA290 R55. The description is as above. The format is cell-based. The conditions noted are these: LA290R55, 18 h, read-out: Minimum Inhibitory Concentration.
For another assay, the system named is Proteus vulgaris OX 19. The assay is described as above. Format: cell-based. To be noted: OX19, 37°C, 18 hours, read-out: Minimum Inhibitory Concentration.
In assay [18] the test system is Staphylococcus aureus FDA 209P. Described as above. To be noted: FDA209P, 37°C, 18 hours, read-out: Minimum Inhibitory Concentration. Format: cell-based.
Assay [19] has as its system Escherichia coli JR66/W677. The description is as above. Format: cell-based. To be noted: JR66/W677, 37°C, 18 hours, read-out: Minimum Inhibitory Concentration.
Assay [20] relates to Escherichia coli LA290 R56. The description is as above. The conditions noted are these: LA290R56, 18 h, read-out: Minimum Inhibitory Concentration. The format is cell-based.
Assay [21] relates to Staphylococcus aureus Smith. The assay is described as above. The format is cell-based. The conditions noted are these: 37°C, 18 hours, read-out: Minimum Inhibitory Concentration.
A further assay deals with Sarcina lutea PCI 1001. The description is as above. The format is cell-based. The conditions noted are these: Micrococcus luteus, PCI1001; 37°C, 18 hours; read-out: Minimum Inhibitory Concentration.
The test system of assay [22] is Mycobacterium smegmatis ATCC 607. Described as above. Format: cell-based. The conditions noted are these: Mycolicibacterium smegmatis, ATCC607; 37°C, 18 hours; read-out: Minimum Inhibitory Concentration.
Assay [23] has as its system Pseudomonas aeruginosa GN315. The assay is described as above. The format is cell-based. The conditions noted are these: GN315, 37°C, 18 hours, read-out: Minimum Inhibitory Concentration.
The subject of another assay is Escherichia coli NIHJ. Described as above. The format is cell-based. To be noted: 37°C, 18 hours, read-out: Minimum Inhibitory Concentration.
Assay [24] has as its system Pseudomonas aeruginosa 99. The description is as above. Format: cell-based. To be noted: Pseudomonas aeruginosa, 99; 37°C, 18 hours; read-out: Minimum Inhibitory Concentration.
The test system of assay [25] is Corynebacterium bovis 1810. The description is as above. The format is cell-based. To be noted: Corynebacterium bovis, 1810; 37°C, 18 hours; read-out: Minimum Inhibitory Concentration.
The test system of assay [26] is kanamycin-resistant strains. To be noted: phosphotransferase-producing resistant strains; cited from earlier work.
The test system of assay [27] is Klebsiella pneumoniae PCI 602. In words: Minimum inhibitory concentration, serial dilution on nutrient agar. Format: cell-based. To be noted: PCI602, 37°C, 18 hours, read-out: Minimum Inhibitory Concentration.
The test system of assay [28] is Shigella dysenteriae JS 11910. Described as above. The conditions noted are these: JS11910, 18 h, read-out: Minimum Inhibitory Concentration. The format is cell-based.
Another assay has as its system nucleotidyltransferase. To be noted: adenylylation of 2"-hydroxyl group with ATP; cited from earlier work.
The subject of assay [29] is kanamycin- and ribostamycin-resistant bacteria. The conditions noted are these: some kanamycin- and ribostamycin-resistant bacteria; cited from earlier work.

Values after ≈ are worked out from the molar mass of the structure shown.

Regarding `NC[C@@H]1CC[C@@H](N)[C@@H](O[C@H]2[C@H](O)[C@@H](O[C@H]3O[C@H](CO)[C@@H](O)[C@H](N)[C@H]3O)[C@H](N)C[C@@H]2N)O1` [DKB, 3',4'-dideoxykanamycin B, reference compound], the MIC is under 0.2 µg/mL in the assay with Bacillus anthracis; 1.56 µg/mL (≈ 3.45 µM) in [1]; 0.2 µg/mL (≈ 0.443 µM) with Escherichia coli W677; under 0.2 µg/mL in [2]; under 0.2 µg/mL with Salmonella typhosa T-63; under 0.2 µg/mL in [3]. The MIC in assay [4] turned out to be 6.25 µg/mL (≈ 13.8 µM); in [5], 1.56 µg/mL (≈ 3.45 µM); in [6], 0.78 µg/mL (≈ 1.73 µM); in assay [7], 1.56 µg/mL (≈ 3.45 µM); in assay [8], 0.78 µg/mL (≈ 1.73 µM); in assay [9], 1.56 µg/mL (≈ 3.45 µM). Moreover, the MIC in assay [10] amounted to 1.56 µg/mL (≈ 3.45 µM); in assay [11], 0.78 µg/mL (≈ 1.73 µM); in assay [12] it was 1.56 µg/mL (≈ 3.45 µM); with Shigella sonnei JS 11746, 0.78 µg/mL (≈ 1.73 µM); in [14], 0.78 µg/mL (≈ 1.73 µM); in assay [15] it was 100 µg/mL (≈ 221 µM). Besides, the MIC is under 0.2 µg/mL in [16]; 0.78 µg/mL (≈ 1.73 µM) with Escherichia coli K-12; 50 µg/mL (≈ 111 µM) in [17]; under 0.2 µg/mL in the assay on Proteus vulgaris OX 19; under 0.2 µg/mL in assay [18]; 50 µg/mL (≈ 111 µM) in assay [19]. Besides, the MIC in [20] was 12.5 µg/mL (≈ 27.7 µM); in assay [21], under 0.2 µg/mL; in the assay with Sarcina lutea PCI 1001 it was 6.25 µg/mL (≈ 13.8 µM); in assay [22], 0.39 µg/mL (≈ 0.864 µM); in assay [23] it was over 100 µg/mL; with Escherichia coli NIHJ, 0.39 µg/mL (≈ 0.864 µM). For the same compound, the MIC in [24] was 3.13 µg/mL (≈ 6.93 µM); in [25], 3.13 µg/mL (≈ 6.93 µM); in assay [27], 0.39 µg/mL (≈ 0.864 µM); in assay [28] it was 1.56 µg/mL (≈ 3.45 µM). For the same compound, the “susceptibility to / inactivation by phosphotransferase” value in the assay with phosphotransferase is given as “not susceptible”. Besides, in assay [13], the “activity against Escherichia coli JR66/W677” value was “inactive”. In [26], the “activity against kanamycin-resistant strains” value was “actually effective”. Besides, the inactivation by nucleotidyltransferase entry in the assay with nucleotidyltransferase is on record as “inactivating”.

With `NCC[C@H](O)C(=O)N[C@@H]1C[C@H](N)[C@@H](O[C@H]2O[C@H](CN)[C@@H](O)[C@H](O)[C@H]2N)[C@H](O[C@@H]2O[C@H](CO)[C@@H](O)[C@H]2O)[C@H]1O` [butirosin B, 1-N-[(S)-4-amino-2-hydroxy-n-butyryl]-ribostamycin], the “activity against resistant bacteria” value in assay [29] is recorded as “active”.
